SMILES strings stand for the structures.

The values that follow come from patent US20260103444A1, “8-HYDROXYQUINOLINE COMPOUND AND USE THEREOF” (OSAKA UNIVERSITY, priority 2022, published 2026).

Assay [1] deals with T1, cMLCK (Homo sapiens, UniProt Q32MK0).
T1 construct: BTN (vendor prefix; by own knowledge, biotinylated); purchased Carna Bioscience #02-460-20N
Briefly: cMLCK activity, ADP-Glo kinase assay. Format: biochemical. As to conditions: for cMLCK activity compared with the compound of Synthesis Example 1: ADP-Glo kinase assay, relative to Synthesis Example 1 (LEU-0992); for cMLCK activation action, dose dependence: ADP-Glo assay; for specificity for cMLCK: versus smMLCK and skMLCK. As to the method:
The cMLCK activation action by 8-hydroxyquinoline compounds was measured by using the ADP-Glo kinase assay (Promega) according to the manufacturer's protocol.
(§1) Purchased purified human cMLCK (BTN-cMLCK, #02-460-20N, Carna Bioscience) as well as in-house purified calmodulin (NM 006888) and cardiac myosin regulatory light chain (MLC2v) (NM 000432) were used to perform phosphorylation to thereby establish an in vitro kinase assay system for measuring cMLCK activity according to the ADP-Glo assay (Promega) or Kumagai method. This system was then applied to high-throughput screening (HTS). The HTS was performed by using multiple domestic compound libraries (compound concentration: 10 μM), and structural development of candidate compounds was performed, thereby developing cMLCK activators based on the 8-hydroxyquinoline (8HQ) skeleton.
On the technique in general: ADP-Glo turns the ADP formed in a reaction into a luminescent signal.

For assay [2] the following is noted: phase 3 clinical trial; cited from earlier work.
For assay [3], the target named is T1, cMLCK. As to the kind of experiment: enzymatic study (Michaelis-Menten kinetics) of cMLCK. Format: biochemical. As to the method:
as §1

The target in assay [4] is T1, cMLCK. As to the kind of experiment: phosphorylation of MLC2v by phos-tag PAGE. The assay is classed as biochemical.
Assay [5] deals with T2, human smooth muscle-type MLCK (smMLCK) (Homo sapiens, UniProt Q15746).
T2 construct: made in house
As to the kind of experiment: specificity: in-vitro kinase reaction with smMLCK and its substrate MYL9, ADP-Glo assay. As to conditions: smMLCK with substrate MYL9, ADP-Glo assay. Format: biochemical. As to the method: (§2) Next, the specificity of the two 8HQ compounds (LEU-1142 and LEU-1170) for human smooth muscle-type MLCK (smMLCK, NM 053025) and human skeletal muscle-type MLCK (skMLCK, NM 033118), which are cMLCK family proteins, was examined (FIGS. 7-1 and 7-2). In-vitro kinase reactions were performed using smMLCK and its substrate MYL9 (NM 006097), and skMLCK and its substrate MYLPF (NM 013292), which had been all purified in-house, and their activity was measured according to the ADP-Glo assay.

Assay [6] addresses T3, human skeletal muscle-type MLCK (skMLCK) (Homo sapiens, UniProt Q9H1R3).
T3 construct: made in house
Briefly: specificity: in-vitro kinase reaction with skMLCK and its substrate MYLPF, ADP-Glo assay. Conditions: skMLCK with substrate MYLPF. The assay is classed as biochemical. As to the method:
as §2

The subject of assay [7] is wild-type human iPS cardiomyocytes. Briefly: intracellular calcium dynamics (Cal-520, FDSS kinetic plate imager). Conditions: wild-type iPSC-CMs, various concentrations, with pacing. The assay is classed as cell-based. As to the method:
CTAs: average changes of calcium transient amplitude at systole, PWD50: pulse width duration measured at 50% CTAs
Wild-type iPSC-CMs were seeded on a 96-well plate at a density of 5×10^4 cells/well and cultured in DMEM with 10% FBS for 24 hours. Subsequently, Cal-520 (ab171868, Abcam) was then added to a final concentration of 5 μM, and the cells were cultured for an additional hour. After removing the medium and washing with HHBS buffer, the buffer was replaced with FluoroBrite DMEM containing various concentrations of LEUO-1154, isoproterenol (positive control group: catecholamine stimulation), or DMSO (negative control group). Intracellular calcium dynamics was then measured with pacing by using an FDSS/ρCell kinetic plate imager (Hamamatsu Photonics K. K.).

As to `Oc1c(CN2CCC(Cc3ccccc3)CC2)cc(Cl)c2cccnc12` [LEU-0999, 7-[(4-benzylpiperidin-1-yl)methyl]-5-chloroquinolin-8-ol], the “cMLCK activity compared with the compound of Synthesis Example 1” value on cMLCK [1] is recorded as “weaker”.

Turning to `O=[N+]([O-])c1cccc(C(Nc2nccs2)c2ccc3cccnc3c2O)c1` (stereo not drawn) [LEU-0944, 7-[(3-nitrophenyl) (thiazol-2-ylamino)methyl]quinolin-8-ol], the “cMLCK activity compared with the compound of Synthesis Example 1” value on cMLCK [1] is recorded as “equivalent”.

For the compound `Oc1c(C(Nc2ccccn2)c2cccnc2)cc(Cl)c2cccnc12` (stereo not drawn) [LEU-0998, 5-chloro-7-[(pyridin-2-ylamino) (pyridin-3-yl)methyl]quinolin-8-ol], the “cMLCK activity compared with the compound of Synthesis Example 1” value on cMLCK [1] is reported as “weaker”.

In the case of `CCCCC(=O)NC(c1ccc(OC)cc1)c1ccc2cccnc2c1O` (stereo not drawn) [LEU-1128, N-[(8-hydroxyquinolin-7-yl) (4-methoxyphenyl)methyl]pentanamide], the “cMLCK activity compared with the compound of Synthesis Example 1” value at cMLCK [1] is given as “weaker”.

On to `Oc1cccnc1NC(c1ccc(F)cc1)c1ccc2cccnc2c1O` (stereo not drawn) [LEU-0942, 7-{(4-fluorophenyl) [(3-hydroxypyridin-2-yl)amino]methyl}quinolin-8-ol], for which, on cMLCK [1], the “cMLCK activity compared with the compound of Synthesis Example 1” value is “weaker”.

As to `COc1ccc(C(NC(=O)C(C)C)c2cc([N+](=O)[O-])c3cccnc3c2O)cc1` (stereo not drawn) [LEU-1220, N-[(8-hydroxy-5-nitroquinolin-7-yl) (4-methoxyphenyl)methyl]isobutyramide], on cMLCK [1], the “cMLCK activity compared with the compound of Synthesis Example 1” value is reported as “equivalent”.

For the compound `COC(=O)N1CCN(Cc2cccc(NC(=O)Nc3ccc(C)nc3)c2F)CC1` [Omecamtiv mecarbil (OM), Omecamtiv mecarbil], in assay [2], the “time to onset of heart failure” value is “prolonging the time to onset of heart failure without worsening prognosis”.

As to `Oc1c(C(Nc2nccs2)c2ccccc2)ccc2cccnc12` (stereo not drawn) [LEU-1008, 7-[phenyl(thiazol-2-ylamino)methyl]quinolin-8-ol], the “cMLCK activity compared with the compound of Synthesis Example 1” value at cMLCK [1] was “equivalent”.

As to `CCCCC(=O)NC(c1ccc(N2CCOCC2)nc1)c1cc([N+](=O)[O-])c2cccnc2c1O` (stereo not drawn) [LEU-1170, N-[(8-hydroxy-5-nitroquinolin-7-yl) (6-morpholinopyridin-3-yl)methyl]pentanamide], on cMLCK [1], the “cMLCK activation action, dose dependence” value is given as “dose-dependent” and the “specificity for cMLCK” value is “high specificity for cMLCK”. Further, the “effect on Km” value at cMLCK [3] is “did not affect Km”. The “phosphorylation of MLC2v” value on cMLCK [4] is given as “increase the phosphorylation of MLC2v”. The “specificity for smMLCK” value in assay [5] is “Neither compound showed specificity”. Besides, the “specificity for skMLCK” value in assay [6] is listed as “Neither compound showed specificity”.

Turning to `CC(C)NCC(O)c1ccc(O)c(O)c1` (stereo not drawn) [isoproterenol, reference compound], the calcium dynamics result in assay [7] was “enhanced calcium dynamics”.

On to `Oc1c(C(c2ccc(C(F)(F)F)cc2)N2CCCCC2)ccc2cccnc12` (stereo not drawn) [LEU-0943, 7-(piperidin-1-yl [4-(trifluoromethyl)phenyl]methyl}quinolin-8-ol], for which, at cMLCK [1], the “cMLCK activity compared with the compound of Synthesis Example 1” value was “weaker”.

On to `CCCCC(=O)NC(c1ccc(OC)cc1)c1cc(Cl)c2cccnc2c1O` (stereo not drawn) [LEU-1018, N-[(5-chloro-8-hydroxyquinolin-7-yl) (4-methoxyphenyl)methyl]pentanamide], for which the “cMLCK activity compared with the compound of Synthesis Example 1” value at cMLCK [1] is on record as “weaker”.

For the compound `CCCCC(=O)NC(c1ccc(-n2ccnc2)cc1)c1cc([N+](=O)[O-])c2cccnc2c1O` (stereo not drawn) [LEU-1142, N-{[4-(1H-imidazol-1-yl)phenyl] (8-hydroxy-5-nitroquinolin-7-yl)methyl}pentanamide], at cMLCK [1], the “cMLCK activation action, dose dependence” value was “dose-dependent” and the “specificity for cMLCK” value is given as “high specificity for cMLCK”. Besides, the “effect on Km” value at cMLCK [3] is on record as “did not affect Km”. Also, at cMLCK [4], the “phosphorylation of MLC2v” value was “increase the phosphorylation of MLC2v”. The “specificity for smMLCK” value in assay [5] is listed as “Neither compound showed specificity”. Further, in assay [6], the “specificity for skMLCK” value is recorded as “Neither compound showed specificity”.

In the case of `COc1ccc(C(Nc2ccccn2)c2cc(Cl)c3cccnc3c2O)cc1[N+](=O)[O-]` (stereo not drawn) [LEU-0997, 5-chloro-7-[(4-methoxy-3-nitrophenyl) (pyridin-2-ylamino)methyl]quinolin-8-ol], the “cMLCK activity compared with the compound of Synthesis Example 1” value on cMLCK [1] was “equivalent”.

With `COc1ccc(C(NC(C)=O)c2cc([N+](=O)[O-])c3cccnc3c2O)cc1` (stereo not drawn) [LEU-0990, N-[(8-hydroxy-5-nitroquinolin-7-yl) (4-methoxyphenyl)methyl]acetamide], on cMLCK [1], the “cMLCK activity compared with the compound of Synthesis Example 1” value is “weaker”.

`CCC(=O)NC(c1ccc(OC)cc1)c1cc([N+](=O)[O-])c2cccnc2c1O` (stereo not drawn) [LEU-0993]: the “cMLCK activity compared with the compound of Synthesis Example 1” value on cMLCK [1] is given as “equivalent”.

In the case of `Oc1ccccc1C(Nc1nccs1)c1ccc2cccnc2c1O` (stereo not drawn) [LEU-0945, 7-[(2-hydroxyphenyl) (thiazol-2-ylamino)methyl]quinolin-8-ol], the “cMLCK activity compared with the compound of Synthesis Example 1” value at cMLCK [1] is “weaker”.
